Laboratory results taken from patent US20240335431A1, “1-H-PYRROLO[2,3-c]PYRIDINE COMPOUNDS” (Acerta Pharma B.V., priority 2023, published 2024).
Like-named read-outs stand apart in the source and are kept apart here.

Assays:
[1] = Human hepatocyte intrinsic clearance assay; type: in vitro ADME; conditions: human hepatocytes
Procedure: Human hepatocytes (LiverPool™ 10-Donor Human hepatocytes (Mixed Gender, PEG-free, Product No. S01205, 5 million cells per vial) were obtained from BioreclamationIVT. DMSO was sourced from Solarbio S&T Co Ltd. Leibovitz's L-15 Medium, Williams' Medium E, GlutaMAX™-1 (100×), HEPES, DPBS (10×) and Human Recombinant Insulin Solution were purchased from Gibco. Isotonic Percoll Solution was purchased from GE Healthcare. Fetal Bovine Serum (FBS) was purchased from Corning.
10 mM dexamethasone stock solution was prepared by dissolving 3.9 mg dexamethasone in 1 mL of DMSO. An Isotonic Percoll Solution was prepared by dilution of Percoll with DPBS (10×). 15 mL of Isotonic Percoll Solution (90% Percoll/10% DPBS) was added to 31.25 mL William's E medium containing 500 mL of GlutaMAX™-1 (100×), 750 mL of 1M HEPES, 2.5 mL of 5% FBS, 50 mL of 4 mg/mL Human Recombinant Insulin Solution and 5 mL of the 10 mM dexamethasone stock.
2 mL of 10 mM DMSO stock solutions of test compound were added to 198 mL acetonitrile to produce 100 mmol/L concentration.
The human hepatocyte vial was thawed at 37° C. in a waterbath. Once thawed, contents were poured into a 50 mL conical tube and centrifuged at 100 g for 10 minutes. The thawing medium was poured out and 4 mL L-15 medium was added. The tube was gently shaken to resuspend the hepatocytes and cells were counted with an appropriate cell counter. 247.5 mL of the hepatocyte suspension was transferred into each well of the plate and pre-warmed at 600 rpm and 50° C. to enable the temperature to rise to 37° C.
2.5 mL of the […] test compound solution was added to initiate the reaction (final concentration […]) and incubated at 37° C. with shaking at 900 rpm. At 0.5, 5, 15, 30, 45, 60, 80, 100 and 120 minutes, 20 mL was taken into a quenching solution of acetonitrile containing internal standards. The mix was vortexed at 800 rpm for 2 minutes followed by centrifugation for 20 minutes at 4000 rpm at 4° C. 40 mL of supernatant was transferred into a 96 well analysis plate containing 160 mL of water in each well. The analysis plate was shaken at 100 rpm for 2 minutes prior to analysis by LC-MS/MS.
Peak areas were determined from extracted ion chromatograms. Percent parent remaining was calculated from peak area of test compound. The slope value, k, was determined by linear regression of the natural logarithm of percent parent remaining versus incubation time.
The in vitro intrinsic clearance (in vitro CLint in mL/min/10^6 cells) was determined from the slope value using the following equation: […]
where V is the incubation volume (0.25 mL) and N is the number of hepatocytes per well (0.25×10^6 cells).

hERG = hERG (Homo sapiens (Human), UniProt Q12809); experiment: hERG assay 1 (standard), SyncroPatch 384PE; type: cell-based; conditions: CHO cells, room temperature, up to 40 uM
Chain of hERG (Q12809 whole entry): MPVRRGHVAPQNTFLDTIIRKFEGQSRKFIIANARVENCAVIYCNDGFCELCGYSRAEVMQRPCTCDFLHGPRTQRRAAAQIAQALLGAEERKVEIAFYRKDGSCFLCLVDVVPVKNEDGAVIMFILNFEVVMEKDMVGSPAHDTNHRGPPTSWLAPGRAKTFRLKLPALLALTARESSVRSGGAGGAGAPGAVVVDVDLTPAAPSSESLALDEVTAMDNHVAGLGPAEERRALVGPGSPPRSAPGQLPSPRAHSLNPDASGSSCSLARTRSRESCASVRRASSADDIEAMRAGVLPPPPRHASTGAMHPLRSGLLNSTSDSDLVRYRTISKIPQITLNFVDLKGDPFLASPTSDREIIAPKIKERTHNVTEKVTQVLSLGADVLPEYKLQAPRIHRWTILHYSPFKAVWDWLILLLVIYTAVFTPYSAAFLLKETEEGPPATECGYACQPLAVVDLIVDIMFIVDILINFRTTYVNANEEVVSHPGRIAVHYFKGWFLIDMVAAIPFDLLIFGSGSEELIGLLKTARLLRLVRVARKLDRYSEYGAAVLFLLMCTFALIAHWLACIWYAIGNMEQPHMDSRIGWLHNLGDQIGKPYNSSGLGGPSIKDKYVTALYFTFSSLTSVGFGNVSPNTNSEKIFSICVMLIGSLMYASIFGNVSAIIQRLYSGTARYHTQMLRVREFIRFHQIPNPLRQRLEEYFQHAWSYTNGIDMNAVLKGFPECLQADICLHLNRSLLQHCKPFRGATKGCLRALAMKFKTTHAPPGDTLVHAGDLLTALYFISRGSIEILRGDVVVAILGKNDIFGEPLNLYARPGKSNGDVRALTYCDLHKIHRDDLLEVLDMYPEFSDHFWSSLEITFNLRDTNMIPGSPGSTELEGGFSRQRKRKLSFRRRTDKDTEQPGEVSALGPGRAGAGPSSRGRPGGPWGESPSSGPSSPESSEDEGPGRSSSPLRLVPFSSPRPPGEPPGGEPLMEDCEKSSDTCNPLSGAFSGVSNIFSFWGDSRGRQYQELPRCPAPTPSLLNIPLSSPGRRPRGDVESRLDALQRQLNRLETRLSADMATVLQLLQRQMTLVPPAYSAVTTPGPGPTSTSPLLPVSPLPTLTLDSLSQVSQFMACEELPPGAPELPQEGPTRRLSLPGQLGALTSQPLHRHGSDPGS
Outline: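 Automated patch clamp on hERG-expressing CHO-K1 cells at room temperature, +60/−40 mV protocol every 15 s. Six-point cumulative concentrations 139 nM to 40 uM (0.33% DMSO final); IC50 from one-site fit of % inhibition. Wells required ≥30 MegaOhm seal, current >0.2 nA, Z prime >0.4.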

[2] = Human liver microsomes (HLMs) intrinsic clearance assay; type: in vitro ADME; conditions: human, microsomes

Structure (SMILES) | HH CLint [1] [μl/min/1E6] | microsomal CLint at 1 µM ([2]; pH 7.4, HLM CLint) [µL/min/mg] | IC50 (hERG) [µM] | HLM CLint ([2]; 1 µM, pH 7.4) [µL/min/mg] | microsomal CLint at 1 µM ([2]; pH 7.4, 1 mg/mL HLM, NADPH, read-out: HLM CLint) [µL/min/mg]
COCCN(C)CCC[C@H](C(C)C)N1CCC(C(=O)c2cn(-c3ccc(F)cc3C(=O)N(C(C)C)C(C)C)c3cnccc23)CC1 (racemic) [Example 23, rac-(R)-5-Fluoro-N,N-diisopropyl-2-(3-(1-(6-((2-methoxyethyl)(methyl)amino)-2-methylhexan-3-yl)piperidine-4-carbonyl)-1H-pyrrolo[2,3-c]pyridin-1-yl)benzamide] | 3.8 | 156 | 30.6 | – | –
CC(C)N(C(=O)c1cc(F)ccc1-n1cc(C(=O)C2CCN(C(=O)[C@H]3NC[C@@H]4CC[C@@H]43)CC2)c2ccncc21)C(C)C (relative stereo) [Example 25, rel-2-(3-(1-((1R,2R,5S)-3-Azabicyclo[3.2.0]heptane-2-carbonyl)piperidine-4-carbonyl)-1H-pyrrolo[2,3-c]pyridin-1-yl)-5-fluoro-N,N-diisopropylbenzamide] | 3.6 | 94 | > 40 | – | –
Cc1c(C(=O)C2CCN(C(=O)[C@@H]3CCC(C)(C)N3)CC2)c2ccncc2n1-c1ccc(F)cc1C(=O)N(C(C)C)C(C)C (single isomer, unassigned) [Compound 56-2] | 3.4 | – | > 40 | 91 | –
CCN(C(=O)c1cc(F)ccc1-n1c(C)c(C(=O)[C@@H]2CCN(C(=O)[C@@H]3CCC4(CC4)N3)[C@@H](C)C2)c2ccncc21)C(C)C (single isomer, unassigned) [Example 52-1, N-Ethyl-5-fluoro-N-isopropyl-2-(2-methyl-3-((2R*,4S*)-2-methyl-1-((S)-4-azaspiro[2.4]heptane-5-carbonyl)piperidine-4-carbonyl)-1H-pyrrolo[2,3-c]pyridin-1-yl)benzamide] | 4.1 | – | – | – | 150
CC(C)N(C(=O)c1cc(F)ccc1-n1cc(C(=O)C2CN(C(=O)[C@H]3NC4CCC3CC4)C2)c2ccncc21)C(C)C [Example 6, (S)-2-(3-(1-(2-Azabicyclo[2.2.2]octane-3-carbonyl)azetidine-3-carbonyl)-1H-pyrrolo[2,3-c]pyridin-1-yl)-5-fluoro-N,N-diisopropylbenzamide] | – | 40 | – | – | –
CCN(C(=O)c1cc(F)ccc1-n1cc(C(=O)C2CN(C(=O)[C@H]3N[C@@H]4CC[C@H]3C4)C2)c2ccncc21)C(C)C [Example 8, 2-(3-(1-((1R,3S,4S)-2-Azabicyclo[2.2.1]heptane-3-carbonyl)azetidine-3-carbonyl)-1H-pyrrolo[2,3-c]pyridin-1-yl)-N-ethyl-5-fluoro-N-isopropylbenzamide] | – | 21 | > 40 | – | –
CCN(C(=O)c1cc(F)ccc1-n1cc(C(=O)C2CN(C(=O)[C@H]3NC4CCC3CC4)C2)c2ccncc21)C(C)C [Example 9, (S)-2-(3-(1-(2-Azabicyclo[2.2.2]octane-3-carbonyl)azetidine-3-carbonyl)-1H-pyrrolo[2,3-c]pyridin-1-yl)-N-ethyl-5-fluoro-N-isopropylbenzamide] | 3.8 | 27 | – | – | –
CC(C)(F)c1ncccc1-c1cc(F)ccc1-n1cc(C(=O)C2CN(C(=O)[C@H]3N[C@@H]4CC[C@H]3C4)C2)c2ccncc21 [Example 13, (1-((1R,3S,4S)-2-Azabicyclo[2.2.1]heptane-3-carbonyl)azetidin-3-yl)(1-(4-fluoro-2-(2-(2-fluoropropan-2-yl)pyridin-3-yl)phenyl)-1H-pyrrolo[2,3-c]pyridin-3-yl)methanone] | – | 119 | 35.8 | – | –
CCN(C(=O)c1cc(F)ccc1-n1cc(C(=O)C2CCN(C(=O)[C@H]3N[C@H]4C[C@@H]3[C@@H](F)C4)CC2)c2ccncc21)C(C)C [Example 30, N-Ethyl-5-fluoro-2-(3-(1-((1S,3S,4S,5S)-5-fluoro-2-azabicyclo[2.2.1]heptane-3-carbonyl)piperidine-4-carbonyl)-1H-pyrrolo[2,3-c]pyridin-1-yl)-N-isopropylbenzamide] | – | 54 | > 40 | – | –

Second part, led by results:

HH CLint [1] [μl/min/1E6] | microsomal CLint at 1 µM ([2]; pH 7.4, HLM CLint) [µL/min/mg] | Structure (SMILES) | IC50 (hERG) [µM] | HLM CLint ([2]; 1 µM, pH 7.4) [µL/min/mg] | microsomal CLint at 1 µM ([2]; pH 7.4, 1 mg/mL HLM, NADPH, read-out: HLM CLint) [µL/min/mg]
– | 54 | Cc1c(C(=O)C2CCN(C(=O)[C@H]3NC[C@@H]4C[C@@H]43)CC2)c2ccncc2n1-c1ccc(F)cc1C(=O)N(CC(F)(F)F)C(C)C (single isomer, unassigned) [Example 51-1] | > 40 | – | –
– | 12 | Cc1c(C(=O)[C@@H]2CCN(C(=O)[C@@H]3CC[C@H](C)N3)[C@@H](C)C2)c2ccncc2n1-c1ccc(F)cc1C(=O)N(C(C)C)C(C)C (stereo in doubt) [Example 62, 5-Fluoro-N,N-diisopropyl-2-(2-methyl-3-((2S,4RS)-2-methyl-1-((2S,5S)-5-methylpyrrolidine-2-carbonyl)piperidine-4-carbonyl)-1H-pyrrolo[2,3-c]pyridin-1-yl)benzamide] | > 40 | – | –
– | 63 | CCN(C(=O)c1cc(F)ccc1-n1c(C)c(C(=O)[C@@H]2CCN(C(=O)[C@@H]3CC[C@H](C)N3)[C@@H](C)C2)c2ccncc21)C(C)C (stereo in doubt) [Example 63, N-Ethyl-5-fluoro-N-isopropyl-2-(2-methyl-3-((2S,4RS)-2-methyl-1-((2S,5S)-5-methylpyrrolidine-2-carbonyl)piperidine-4-carbonyl)-1H-pyrrolo[2,3-c]pyridine-1-yl)benzamide] | > 40 | – | –
– | 88 | Cc1c(C(=O)[C@@H]2CCN(C(=O)[C@@H]3CC[C@@H](C)N3)[C@@H](C)C2)c2ccncc2n1-c1ccc(F)cc1C(=O)N(C(C)C)C(C)C (stereo in doubt) [Example 64, 5-Fluoro-N,N-diisopropyl-2-(2-methyl-3-((2S,4RS)-2-methyl-1-((2S,5R)-5-methylpyrrolidine-2-carbonyl)piperidine-4-carbonyl)-1H-pyrrolo[2,3-c]pyridin-1-yl)benzamide] | 32.7 | – | –
– | 55 | CCN(C(=O)c1cc(F)ccc1-n1c(C)c(C(=O)[C@@H]2CCN(C(=O)[C@@H]3CC[C@@H](C)N3)[C@@H](C)C2)c2ccncc21)C(C)C (stereo in doubt) [Example 65, N-Ethyl-5-fluoro-N-isopropyl-2-(2-methyl-3-((2S,4RS)-2-methyl-1-((2S,5R)-5-methylpyrrolidine-2-carbonyl)piperidine-4-carbonyl)-1H-pyrrolo[2,3-c]pyridin-1-yl)benzamide] | > 40 | – | –
– | 50 | C[C@@H]1CCC[C@H](C)N1C(=O)c1cc(F)ccc1-n1cc(C(=O)C2CCN(C(=O)[C@H]3N[C@@H]4CC[C@H]3C4)CC2)c2ccncc21 [Example 33, (1-((1R,3S,4S)-2-Azabicyclo[2.2.1]heptane-3-carbonyl)piperidin-4-yl)(1-(2-((2R,6S)-2,6-dimethylpiperidine-1-carbonyl)-4-fluorophenyl)-1H-pyrrolo[2,3-c]pyridin-3-yl)methanone] | > 40 | – | –
– | 11 | C[C@@H]1COC[C@@H](C)N1C(=O)c1cc(F)ccc1-n1cc(C(=O)C2CCN(C(=O)[C@H]3N[C@@H]4CC[C@H]3C4)CC2)c2ccncc21 [Example 34, (1-((1R,3S,4S)-2-Azabicyclo[2.2.1]heptane-3-carbonyl)piperidin-4-yl)(1-(2-((3R,5R)-3,5-dimethylmorpholine-4-carbonyl)-4-fluorophenyl)-1H-pyrrolo[2,3-c]pyridin-3-yl)methanone] | > 40 | – | –
– | 17 | CC(C)N(C(=O)c1cc(F)ccc1-n1cc(C(=O)C2CCN(C(=O)[C@H]3N[C@@H]4CC[C@H]3C4)CC2)c2c(F)cncc21)C(C)C.O=CO [Example 44, 2-(3-(1-((1R,3S,4S)-2-Azabicyclo[2.2.1]heptane-3-carbonyl)piperidine-4-carbonyl)-4-fluoro-1H-pyrrolo[2,3-c]pyridin-1-yl)-5-fluoro-N,N-diisopropylbenzamide 1·formic acid] | > 40 | – | –
